Laboratory results from US12187719B2, “Proteolysis targeting chimera (PROTACS) as degraders of SMARCA2 and /or SMARCA4” (Boehringer Ingelheim International GmbH, priority 2018, dated 2025).

Legend:
SMARCA2 = target: T1, SMARCA2 (Homo sapiens, UniProt P51531); experiment: Protein degradation assay in A549 cells, SMARCA2 levels by WES capillary electrophoresis; format: cell-based; details: A549 (NSCLC) cells with SMARCA4 mutation corrected to wild type, 18 h incubation; for DC50: concentration at which half maximal degradation is achieved, normalised to GAPDH; for Dmax: maximal amount of degraded protein relative to initial levels
T1 construct: such that the cells express both SMARCA2 and SMARCA4; endogenous in cells; host or cells: A549 (NSCLC) cells with SMARCA4 mutation corrected to wild type
Description: (§1) For the protein degradation assay, A549 (NSCLC) cells are used in which the inactivating SMARCA4 mutation has been corrected to wild type, such that the cells express both SMARCA2 and SMARCA4. 35000 cells in F12K Medium +10% FBS (100 μL/well) are seeded in a Greiner 96 well F-bottom plate and incubated at 37° C. overnight. Compounds are added from DMSO stock solution using ECHO Access™ workstation or HP D300 Digital Dispenser and cells are incubated at 37° C. for 18 h. Medium is removed, cells are washed with PBS, PBS is removed and 30 μL cold Lysis Buffer (1% Triton, 350 mM KCl, 10 mM Tris, Halt Phosphatase-Protease Inhibitors, 10 mM DTT, Benzonase 0.5 μL/mL) is added to each well. Cells are lysed for 20 min at 4° C. on a bioshake at 800 rpm before insoluble debris is pelleted by centrifugation for 20 min at 4000 rpm at 4° C. The supernatant is transferred to a fresh PCR plate. SMARCA2 levels are determined on a WES capillary electrophoresis instrument (Proteinsimple) using rabbit anti-SMARCA2 antibody (1:25, Sigma #HPA029981), SMARCA4 antibody (CellSignaling #49360, 1:25), PBRM1 antibody (Bethyl #A301-591A-M, 1:40) and anti-GAPDH antibody (1:100, Abcam #ab9485) for normalization.
The compounds 1-1 to 1-18 according to the invention have been tested in the above described assay. The majority of the compounds show degradation of SMARCA2 and SMARCA4 protein in A549 cells with DC50 in the range of 10-1000 nM (i.e. compound concentration at which half maximal degradation is achieved). The Dmax represents the efficiency of degradation and gives the maximal amount of degraded protein relative to initial levels. The majority of the compounds reach degradation levels >80%.

SMARCA4 = target: T2, SMARCA4 (Homo sapiens, UniProt P51532); experiment: Protein degradation assay in A549 cells, SMARCA4 levels by WES capillary electrophoresis; format: cell-based; details: A549 (NSCLC) cells with SMARCA4 mutation corrected to wild type, 18 h incubation; for DC50: concentration at which half maximal degradation is achieved, normalised to GAPDH; for Dmax: maximal amount of degraded protein relative to initial levels
T2 construct: endogenous in cells; host or cells: A549 (NSCLC) cells with SMARCA4 mutation corrected to wild type
Description: as §1
The Dmax represents the efficiency of degradation and gives the maximal amount of degraded protein relative to initial levels.

T2 sequence (P51532 whole entry): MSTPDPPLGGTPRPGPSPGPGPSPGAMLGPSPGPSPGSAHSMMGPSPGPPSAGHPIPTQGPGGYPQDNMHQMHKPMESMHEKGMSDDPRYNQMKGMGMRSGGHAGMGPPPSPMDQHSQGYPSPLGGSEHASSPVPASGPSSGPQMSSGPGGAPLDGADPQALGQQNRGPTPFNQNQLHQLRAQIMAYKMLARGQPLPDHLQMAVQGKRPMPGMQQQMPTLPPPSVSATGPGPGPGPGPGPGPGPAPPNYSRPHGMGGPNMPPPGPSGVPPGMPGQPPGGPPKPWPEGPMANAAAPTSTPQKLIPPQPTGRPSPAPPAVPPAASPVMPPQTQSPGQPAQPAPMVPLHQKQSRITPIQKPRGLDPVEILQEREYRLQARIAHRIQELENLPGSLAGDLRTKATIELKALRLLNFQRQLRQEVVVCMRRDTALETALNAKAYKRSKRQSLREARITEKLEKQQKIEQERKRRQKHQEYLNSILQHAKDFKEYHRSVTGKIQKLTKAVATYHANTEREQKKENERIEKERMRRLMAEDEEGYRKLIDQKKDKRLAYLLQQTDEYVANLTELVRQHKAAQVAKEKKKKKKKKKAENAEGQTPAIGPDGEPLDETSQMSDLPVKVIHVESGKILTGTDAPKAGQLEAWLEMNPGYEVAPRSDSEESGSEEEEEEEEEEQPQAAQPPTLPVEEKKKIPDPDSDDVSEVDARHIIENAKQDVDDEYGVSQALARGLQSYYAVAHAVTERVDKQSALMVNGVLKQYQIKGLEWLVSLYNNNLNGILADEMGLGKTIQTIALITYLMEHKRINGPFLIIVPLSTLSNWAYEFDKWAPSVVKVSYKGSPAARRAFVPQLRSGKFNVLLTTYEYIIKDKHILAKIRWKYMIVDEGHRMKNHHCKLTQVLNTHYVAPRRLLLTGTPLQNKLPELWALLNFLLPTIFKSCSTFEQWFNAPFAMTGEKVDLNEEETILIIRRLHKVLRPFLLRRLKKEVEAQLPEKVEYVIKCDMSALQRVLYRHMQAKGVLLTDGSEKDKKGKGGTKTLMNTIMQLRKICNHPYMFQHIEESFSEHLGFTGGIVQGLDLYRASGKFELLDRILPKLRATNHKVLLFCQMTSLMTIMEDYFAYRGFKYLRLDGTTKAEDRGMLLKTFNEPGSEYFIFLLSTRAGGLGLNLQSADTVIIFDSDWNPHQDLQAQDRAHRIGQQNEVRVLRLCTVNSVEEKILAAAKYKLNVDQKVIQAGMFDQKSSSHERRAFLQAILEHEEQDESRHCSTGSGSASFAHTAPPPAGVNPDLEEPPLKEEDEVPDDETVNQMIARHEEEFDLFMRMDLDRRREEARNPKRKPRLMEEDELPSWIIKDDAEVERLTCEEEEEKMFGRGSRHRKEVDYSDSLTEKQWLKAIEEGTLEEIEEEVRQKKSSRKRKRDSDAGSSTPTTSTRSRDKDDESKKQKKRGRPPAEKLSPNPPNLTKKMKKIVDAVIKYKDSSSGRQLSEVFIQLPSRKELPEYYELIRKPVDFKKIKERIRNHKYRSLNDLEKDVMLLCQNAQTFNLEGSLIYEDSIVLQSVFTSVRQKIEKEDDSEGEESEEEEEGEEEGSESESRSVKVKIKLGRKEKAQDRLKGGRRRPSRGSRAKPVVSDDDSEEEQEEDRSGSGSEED
T1 sequence (P51531 whole entry): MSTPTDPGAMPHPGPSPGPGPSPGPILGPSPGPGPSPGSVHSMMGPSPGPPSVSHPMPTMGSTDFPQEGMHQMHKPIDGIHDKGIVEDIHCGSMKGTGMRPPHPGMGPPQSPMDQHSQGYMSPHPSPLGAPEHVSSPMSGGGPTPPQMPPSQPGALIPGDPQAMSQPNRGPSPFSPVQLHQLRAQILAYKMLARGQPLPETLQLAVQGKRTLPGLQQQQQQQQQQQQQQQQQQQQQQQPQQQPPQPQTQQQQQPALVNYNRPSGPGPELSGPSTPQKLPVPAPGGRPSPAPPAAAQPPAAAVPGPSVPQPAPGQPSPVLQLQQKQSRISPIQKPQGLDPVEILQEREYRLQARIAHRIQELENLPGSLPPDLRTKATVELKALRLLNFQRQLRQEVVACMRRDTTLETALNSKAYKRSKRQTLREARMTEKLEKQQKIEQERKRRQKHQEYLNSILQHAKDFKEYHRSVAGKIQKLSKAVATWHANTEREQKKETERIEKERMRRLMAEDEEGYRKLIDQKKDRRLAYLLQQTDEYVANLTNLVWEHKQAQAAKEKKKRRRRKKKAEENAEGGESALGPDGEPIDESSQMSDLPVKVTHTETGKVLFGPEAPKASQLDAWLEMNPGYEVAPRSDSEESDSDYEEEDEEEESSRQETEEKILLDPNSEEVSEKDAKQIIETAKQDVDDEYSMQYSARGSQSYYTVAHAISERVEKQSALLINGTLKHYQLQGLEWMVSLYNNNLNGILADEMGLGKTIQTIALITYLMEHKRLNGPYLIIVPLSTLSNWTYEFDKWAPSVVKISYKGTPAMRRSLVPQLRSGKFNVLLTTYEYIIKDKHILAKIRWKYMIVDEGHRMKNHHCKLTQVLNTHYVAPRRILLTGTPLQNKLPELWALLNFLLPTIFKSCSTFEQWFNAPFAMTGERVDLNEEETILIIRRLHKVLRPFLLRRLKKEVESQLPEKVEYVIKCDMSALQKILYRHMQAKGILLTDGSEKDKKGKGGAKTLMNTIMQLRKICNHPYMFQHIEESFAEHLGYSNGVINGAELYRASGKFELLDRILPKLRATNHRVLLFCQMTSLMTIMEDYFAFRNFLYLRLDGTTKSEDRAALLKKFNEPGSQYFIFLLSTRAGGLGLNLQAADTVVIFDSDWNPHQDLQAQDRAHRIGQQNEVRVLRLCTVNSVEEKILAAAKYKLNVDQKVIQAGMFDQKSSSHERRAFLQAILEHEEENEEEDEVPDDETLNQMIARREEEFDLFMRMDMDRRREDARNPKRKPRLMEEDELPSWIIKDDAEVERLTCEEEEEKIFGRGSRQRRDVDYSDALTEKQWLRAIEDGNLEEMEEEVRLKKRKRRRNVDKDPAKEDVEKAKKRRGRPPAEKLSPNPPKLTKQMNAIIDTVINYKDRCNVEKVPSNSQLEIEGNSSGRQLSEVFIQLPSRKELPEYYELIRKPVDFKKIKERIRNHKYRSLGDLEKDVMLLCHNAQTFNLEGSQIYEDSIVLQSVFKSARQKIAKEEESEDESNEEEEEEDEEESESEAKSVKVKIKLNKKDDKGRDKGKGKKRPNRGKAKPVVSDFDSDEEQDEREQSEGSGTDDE

| Compound | DC50 (SMARCA2) [nM] | Dmax (SMARCA2) [%] | DC50 (SMARCA4) [nM] | Dmax (SMARCA4) [%] |
| --- | --- | --- | --- | --- |
| Cc1ncsc1-c1ccc(CNC(=O)[C@@H]2C[C@@H](O)CN2C(=O)[C@@H](NC(=O)C2(F)CC2)C(C)(C)C)c(OCCCCCCCN2CCN(c3cc(-c4ccccc4O)nnc3N)CC2)c1 [Compound I-1] | 450 | 45 | 1240 | 70 |
| Cc1ncsc1-c1ccc(CNC(=O)[C@@H]2C[C@@H](O)CN2C(=O)[C@@H](NC(=O)C2(F)CC2)C(C)(C)C)c(OCCCOCCN2CCN(c3cc(-c4ccccc4O)nnc3N)CC2)c1 [Compound I-3] | – | – | 2040 | 100 |
| Cc1ncsc1-c1ccc(CNC(=O)[C@@H]2C[C@@H](O)CN2C(=O)[C@@H](NC(=O)C2(F)CC2)C(C)(C)C)c(OCCCCOCCN2CCN(c3cc(-c4ccccc4O)nnc3N)CC2)c1 [Compound I-4] | 1000 | 70 | 735 | 87 |
| Cc1ncsc1-c1ccc(CNC(=O)[C@@H]2C[C@@H](O)CN2C(=O)[C@@H](NC(=O)C2(F)CC2)C(C)(C)C)c(OCCOCCOCCN2CCN(c3cc(-c4ccccc4O)nnc3N)CC2)c1 [Compound I-5] | 2540 | 89 | – | 84 |
| Cc1ncsc1-c1ccc(CNC(=O)[C@@H]2C[C@@H](O)CN2C(=O)[C@@H](NC(=O)C2(F)CC2)C(C)(C)C)c(OCCCCCCCOCCN2CCN(c3cc(-c4ccccc4O)nnc3N)CC2)c1 [Compound I-6] | 172 | 83 | 219 | 89 |
| Cc1ncsc1-c1ccc(CNC(=O)[C@@H]2C[C@@H](O)CN2C(=O)[C@@H](NC(=O)C2(F)CC2)C(C)(C)C)c(OCCOc2ccc(CN3CCN(c4cc(-c5ccccc5O)nnc4N)CC3)cc2)c1 [Compound I-7] | 12 | 98 | 16 | 97 |
| Cc1ncsc1-c1ccc(CNC(=O)[C@@H]2C[C@@H](O)CN2C(=O)[C@@H](NC(=O)C2(F)CC2)C(C)(C)C)c(OCCCCOc2ccc(CN3CCN(c4cc(-c5ccccc5O)nnc4N)CC3)cc2)c1 [Compound I-9] | 236 | 85 | 170 | 83 |
| Cc1ncsc1-c1ccc(CNC(=O)[C@@H]2C[C@@H](O)CN2C(=O)[C@@H](NC(=O)C2(F)CC2)C(C)(C)C)c(OCCc2ccc(OCCN3CCN(c4cc(-c5ccccc5O)nnc4N)CC3)cc2)c1 [Compound I-10] | 41 | 99 | 26 | 99 |
| Cc1ncsc1-c1ccc(CNC(=O)[C@@H]2C[C@@H](O)CN2C(=O)[C@@H](NC(=O)C2(F)CC2)C(C)(C)C)c(OCCc2cccc(CN3CCN(c4cc(-c5ccccc5O)nnc4N)CC3)c2)c1 [Compound I-13] | 189 | 88 | 634 | 97 |
| Cc1ncsc1-c1ccc(CNC(=O)[C@@H]2C[C@@H](O)CN2C(=O)[C@@H](NC(=O)C2(F)CC2)C(C)(C)C)c(OCCc2ccc(C(=O)N3CCN(c4cc(-c5ccccc5O)nnc4N)CC3)cc2)c1 [Compound I-18] | 525 | 98 | 188 | 81 |

More lines, now with the values ahead:

| DC50 (SMARCA2) [nM] | Dmax (SMARCA2) [%] | DC50 (SMARCA4) [nM] | Dmax (SMARCA4) [%] | Compound |
| --- | --- | --- | --- | --- |
| 67 | 91 | 117 | 93 | Cc1ncsc1-c1ccc(CNC(=O)[C@@H]2C[C@@H](O)CN2C(=O)[C@@H](NC(=O)C2(F)CC2)C(C)(C)C)c(OCCc2ccc(CN3CCN(c4cc(-c5ccccc5O)nnc4N)CC3)cc2)c1 [Compound I-2] |
| 56 | 88 | 168 | 59 | Cc1ncsc1-c1ccc(CNC(=O)[C@@H]2C[C@@H](O)CN2C(=O)[C@@H](NC(=O)C2(F)CC2)C(C)(C)C)c(OCc2ccc(CN3CCN(c4cc(-c5ccccc5O)nnc4N)CC3)cc2)c1 [Compound I-8] |
| 26 | 99 | 16 | 100 | Cc1ncsc1-c1ccc(CNC(=O)[C@@H]2C[C@@H](O)CN2C(=O)[C@@H](NC(=O)C2(F)CC2)C(C)(C)C)c(OCCCOc2ccc(CN3CCN(c4cc(-c5ccccc5O)nnc4N)CC3)cc2)c1 [Compound I-11] |
| ~1000 | 40 | – | – | Cc1ncsc1-c1ccc(CNC(=O)[C@@H]2C[C@@H](O)CN2C(=O)[C@@H](NC(=O)C2(F)CC2)C(C)(C)C)c(OCc2ccc(CCN3CCN(c4cc(-c5ccccc5O)nnc4N)CC3)cc2)c1 [Compound I-12] |
| 58 | 90 | 25 | 92 | Cc1ncsc1-c1ccc(CNC(=O)[C@@H]2C[C@@H](O)CN2C(=O)[C@@H](NC(=O)C2(F)CC2)C(C)(C)C)c(OCCCc2ccc(CN3CCN(c4cc(-c5ccccc5O)nnc4N)CC3)cc2)c1 [Compound I-14] |
